Experimental data published in patent US20080031818A1, “Use of Modulators of a Novel Form of Muscle Selective Calcineurin Interacting Protein (Mcip-1-38) as a Treatment for Cardiovascular Diseases” (GILEAD COLORADO, INC., priority 2004, published 2008).

Assays:
[1] = tested on: neonatal rat ventricular myocytes (NRVM); experiment: Cardiomyocyte cell volume (Coulter counter); format: cell-based; conditions: 48 hours exposure to PE, versus untreated controls, FIG. 9
Method: NRVM culture. For preparations of neonatal rat ventricular myocytes (NRVMs), hearts were removed from 10-20 newborn (1-2 days old) Sprague-Dawley rats. Isolated ventricles were pooled, minced and dispersed by three 20-minute incubations at 37° C. in Ads buffer (116 mM NaCl, 20 mM HEPES, 10 mM NaH2PO4, 5.5 mM glucose, 5 mM KCl, […], pH 7.4) containing collagenase Type II (65 units/ml, Worthington) and pancreatin (0.6 mg/ml, GibcoBRL). Dispersed cells were applied to a discontinuous gradient of 40.5% and 58.5% (v/v) Percoll (Amersham Biosciences), centrifuged, and myocytes collected from the interface layer. […]
Hypertrophy and toxicity assays. Primary hypertrophy endpoints for NRVM included quantitation of ANF secretion, total cellular protein and cell volume. ANF in media supernatants was quantitated by competitive ELISA using a monoclonal anti-ANF antibody (Biodesign) and a biotinylated ANF peptide (Phoenix Peptide). Total cellular protein was quantitated by standard Coomassie dye-binding assay; cells were lysed in protein assay reagent (BioRad) and absorbance at A595 was measured after 1 hour. […] After recovery by centrifugation, cell pellets were washed in PBS, resuspended in 10 ml IsoFlow electrolyte solution (Beckman-Coulter) and analyzed with a Z2 Coulter Particle Counter and Size Analyzer (Beckman-Coulter). […]

[2] = tested on: beta myosin heavy chain; experiment: Beta myosin heavy chain protein by cytoblot; format: cell-based, rat; conditions: NRVM, 48 hours exposure to PE, FIG. 10A
Method: NRVM culture. For preparations of neonatal rat ventricular myocytes (NRVMs), hearts were removed from 10-20 newborn (1-2 days old) Sprague-Dawley rats. Isolated ventricles were pooled, minced and dispersed by three 20-minute incubations at 37° C. in Ads buffer (116 mM NaCl, 20 mM HEPES, 10 mM NaH2PO4, 5.5 mM glucose, 5 mM KCl, […], pH 7.4) containing collagenase Type II (65 units/ml, Worthington) and pancreatin (0.6 mg/ml, GibcoBRL). Dispersed cells were applied to a discontinuous gradient of 40.5% and 58.5% (v/v) Percoll (Amersham Biosciences), centrifuged, and myocytes collected from the interface layer. Myocyte preparations were pre-plated in Dulbecco's modified Eagle's medium (DMEM, Cellgro), supplemented with 10% (v/v) fetal bovine serum (FBS, HyClone), 4 mM L-glutamine and 1% penicillin/streptomycin for 1 hour at 37° C. to reduce fibroblast contamination, then plated at a density of 2.5′10^5 cells per well on 6-well tissue culture plates (or 10,000 cells/well on 96-well tissue culture plates) coated with a 0.2% (w/v) gelatin solution. After 24 hours in culture, myocyte preparations were transferred to serum-free maintenance medium (DMEM supplemented with 0.1% (v/v) Nutridoma (Roche), L-glutamine and penicillin/streptomycin). […]
Myosin heavy chain protein quantitation by cytoblot. […] Plates were read in a 96-well luminometer (Packard Fusion).

CNC[C@H](O)c1cccc(O)c1 [phenylephrine]
increase in cell volume [1]: approximately 50%
beta myosin protein expression [2]: increased beta myosin protein expression by several fold
